# Measured values: patent US11407767B2, “Heterocyclyl substituted pyrrolopyridines that are inhibitors of the CDK12 kinase” (The University of Nottingham, priority 2017, dated 2022)
# Where a name gives a salt, the structure may show the parent alone.
# Target: CDK12/CycK (Homo sapiens, UniProt Q9NYV4)
# Experiment: Inhibition of CDK12 (ADP-Glo kinase assay)
# Format: biochemical
# Settings: 60 nM CDK12/CycK, 30 minutes pre-incubation, 1 μM ATP, 0.5 μM RBER-IRStide substrate, 1 h at 25° C., read-out: CDK12/cyclin K IC50
# Method in brief: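 ADP-Glo luminescence read after a 1 h, 25 °C reaction with 1 μM ATP and 0.5 μM RBER-IRStide peptide. Enzyme (60 nM) and compound were first pre-incubated 30 min; buffer 50 mM HEPES pH 7.5, 20 mM MgCl2, 3 mM MnCl2, 1% DMSO. IC50 fitted after blank subtraction.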
# Chain of CDK12/CycK (Q9NYV4 whole entry): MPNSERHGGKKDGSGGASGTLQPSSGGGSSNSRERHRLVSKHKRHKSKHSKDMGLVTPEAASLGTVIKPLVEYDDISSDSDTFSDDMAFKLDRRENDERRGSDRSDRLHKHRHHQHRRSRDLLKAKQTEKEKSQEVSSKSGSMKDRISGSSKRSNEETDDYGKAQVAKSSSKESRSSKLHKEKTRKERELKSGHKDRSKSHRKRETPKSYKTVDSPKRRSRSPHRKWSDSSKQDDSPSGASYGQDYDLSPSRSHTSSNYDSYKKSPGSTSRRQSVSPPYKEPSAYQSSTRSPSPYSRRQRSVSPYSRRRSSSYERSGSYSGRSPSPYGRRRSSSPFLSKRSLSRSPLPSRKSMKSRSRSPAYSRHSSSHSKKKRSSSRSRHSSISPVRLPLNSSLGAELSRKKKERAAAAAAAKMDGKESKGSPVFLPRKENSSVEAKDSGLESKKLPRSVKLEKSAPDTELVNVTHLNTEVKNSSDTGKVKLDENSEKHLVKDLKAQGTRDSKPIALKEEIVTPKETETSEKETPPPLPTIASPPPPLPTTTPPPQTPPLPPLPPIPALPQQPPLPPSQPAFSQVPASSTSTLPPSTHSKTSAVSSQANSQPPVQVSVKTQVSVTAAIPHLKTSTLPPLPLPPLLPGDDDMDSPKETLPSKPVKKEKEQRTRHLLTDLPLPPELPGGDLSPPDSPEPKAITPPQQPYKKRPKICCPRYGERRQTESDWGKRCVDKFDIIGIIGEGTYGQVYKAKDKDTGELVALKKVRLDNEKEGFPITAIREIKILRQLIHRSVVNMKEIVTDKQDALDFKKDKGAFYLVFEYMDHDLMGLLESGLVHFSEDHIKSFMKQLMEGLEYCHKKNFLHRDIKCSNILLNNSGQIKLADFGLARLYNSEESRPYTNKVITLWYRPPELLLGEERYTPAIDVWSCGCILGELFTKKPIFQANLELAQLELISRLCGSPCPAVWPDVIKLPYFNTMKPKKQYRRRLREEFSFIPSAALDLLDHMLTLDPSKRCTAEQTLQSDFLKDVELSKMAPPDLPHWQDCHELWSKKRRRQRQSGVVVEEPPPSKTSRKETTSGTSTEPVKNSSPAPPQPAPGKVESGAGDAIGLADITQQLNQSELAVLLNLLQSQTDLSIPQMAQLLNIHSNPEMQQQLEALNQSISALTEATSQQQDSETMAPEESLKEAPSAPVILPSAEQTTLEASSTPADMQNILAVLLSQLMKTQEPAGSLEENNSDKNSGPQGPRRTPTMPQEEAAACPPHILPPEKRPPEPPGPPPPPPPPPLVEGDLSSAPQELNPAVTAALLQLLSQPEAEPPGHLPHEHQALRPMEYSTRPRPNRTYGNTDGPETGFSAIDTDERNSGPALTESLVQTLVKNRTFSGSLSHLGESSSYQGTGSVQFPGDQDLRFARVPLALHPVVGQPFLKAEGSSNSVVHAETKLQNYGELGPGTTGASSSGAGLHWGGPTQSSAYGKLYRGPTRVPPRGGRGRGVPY
# Chain of CDK12/CycK (O75909 whole entry partner): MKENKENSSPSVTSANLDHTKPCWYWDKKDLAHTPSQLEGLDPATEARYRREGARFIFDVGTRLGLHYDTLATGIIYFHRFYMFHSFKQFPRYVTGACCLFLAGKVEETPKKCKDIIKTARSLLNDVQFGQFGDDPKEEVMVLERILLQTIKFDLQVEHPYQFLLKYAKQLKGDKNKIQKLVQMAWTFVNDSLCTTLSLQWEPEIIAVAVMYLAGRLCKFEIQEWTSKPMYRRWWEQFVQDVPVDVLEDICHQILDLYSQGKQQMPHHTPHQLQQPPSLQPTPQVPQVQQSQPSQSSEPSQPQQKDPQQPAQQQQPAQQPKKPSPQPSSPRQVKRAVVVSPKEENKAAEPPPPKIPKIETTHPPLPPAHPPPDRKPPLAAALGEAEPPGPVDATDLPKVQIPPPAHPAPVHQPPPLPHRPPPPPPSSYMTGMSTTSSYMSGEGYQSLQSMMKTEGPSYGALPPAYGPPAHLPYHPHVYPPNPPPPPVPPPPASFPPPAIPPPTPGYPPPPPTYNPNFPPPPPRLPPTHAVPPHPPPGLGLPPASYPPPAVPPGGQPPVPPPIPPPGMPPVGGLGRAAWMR
row,SMILES,IC50 [nM]
1,"CCNCCc1cc2c(-c3cnn4ncccc34)ccnc2[nH]1 [Example 31, N-ethyl-2-(4-(pyrazolo[1,5-b]pyridazin-3-yl)-1H-pyrrolo[2,3-b]pyridin-2-yl)ethan-1-amine]",100 to 1000
2,"CN(C)C(=O)c1cc2c(-c3cnn4ncccc34)ccnc2[nH]1 [Example 2, N,N-Dimethyl-4-(pyrazolo[1,5-b]pyridazin-3-yl)-1H-pyrrolo[2,3-b]pyridine-2-carboxamide]",1000 to 30000
3,"Cc1cnc2[nH]ccc2c1-c1cnn2ncccc12 [Example 9, 3-(5-Methyl-1H-pyrrolo[2,3-b]pyridin-4-yl)pyrazolo[1,5-b]pyridazine]",1000 to 30000
4,"C=CC(=O)Nc1cncc(C(=O)N2CCC(c3cc4c(-c5cnn6ncccc56)ccnc4[nH]3)C2)c1 (centres unmarked) [Example 65, N-(5-(3-(4-(Pyrazolo[1,5-b]pyridazin-3-yl)-1H-pyrrolo[2,3-b]pyridin-2-yl)pyrrolidine-1-carbonyl)pyridin-3-yl)acrylamide]",< 100
5,"C=CC(=O)N1CCC[C@@H]1C(=O)N(C)CCc1cc2c(-c3cnn4ncccc34)ccnc2[nH]1 [Example 47, (R)-1-Acryloyl-N-methyl-N-(2-(4-(pyrazolo[1,5-b]pyridazin-3-yl)-1H-pyrrolo[2,3-b]pyridin-2-yl)ethyl)pyrrolidine-2-carboxamide]",1000 to 30000
6,"c1ccn2ncc(-c3ccnc4[nH]ccc34)c2c1 [Example 18, 4-(Pyrazolo[1,5-a]pyridin-3-yl)-1H-pyrrolo[2,3-b]pyridine]",1000 to 30000
7,"O=C(NCCc1cc2c(-c3cnn4ncccc34)ccnc2[nH]1)[C@@H]1CCCN1S(=O)(=O)c1ccccc1 [Example 89, (S)-1-(phenylsulfonyl)-N-(2-(4-(pyrazolo[1,5-b]pyridazin-3-yl)-1H-pyrrolo[2,3-b]pyridin-2-yl)ethyl)pyrrolidine-2-carboxamide]",100 to 1000
8,"C=CC(=O)N1CCC[C@H]1C(=O)N(CC)CCc1cc2c(-c3cnn4ncccc34)ccnc2[nH]1 [Example 50, (S)-1-Acryloyl-N-ethyl-N-(2-(4-(pyrazolo[1,5-b]pyridazin-3-yl)-1H-pyrrolo[2,3-b]pyridin-2-yl)ethyl)pyrrolidine-2-carboxamide]",1000 to 30000
9,"CC(C)CNC(=O)c1cc2c(-c3cnn4ncccc34)ccnc2[nH]1 [Example 4, N-Isobutyl-4-(pyrazolo[1,5-b]pyridazin-3-yl)-1H-pyrrolo[2,3-b]pyridine-2-carboxamide]",1000 to 30000
10,"O=C(NCCc1cc2c(-c3cnn4ncccc34)ccnc2[nH]1)[C@@H]1CCCN1C(=O)CCl [Example 41, (S)-1-(2-Chloroacetyl)-N-(2-(4-(pyrazolo[1,5-b]pyridazin-3-yl)-1H-pyrrolo[2,3-b]pyridin-2-yl)ethyl)pyrrolidine-2-carboxamide]",100 to 1000
11,"C=CC(=O)N1CCC[C@@H]1C(=O)NCCc1cc2c(-c3ccnn3C)ccnc2[nH]1 [Example 52, (R)-1-Acryloyl-N-(2-(4-(1-methyl-1H-pyrazol-5-yl)-1H-pyrrolo[2,3-b]pyridin-2-yl)ethyl)pyrrolidine-2-carboxamide]",1000 to 30000
12,"O=C(CN1CCOCC1)NCc1cc2c(-c3cnn4ncccc34)ccnc2[nH]1 [Example 13, 2-Morpholino-N-((4-(pyrazolo[1,5-b]pyridazin-3-yl)-1H-pyrrolo[2,3-b]pyridin-2-yl)methyl)acetamide]",1000 to 30000
13,"CC(=O)N1CCO[C@H](C(=O)NCCc2cc3c(-c4cnn5ncccc45)ccnc3[nH]2)C1 (single isomer, unassigned) [Example 62]",< 100
14,"CN(C)CCNCc1cc2c(-c3cnn4ncccc34)ccnc2[nH]1 [Example 17, N1,N1-Dimethyl-N2-((4-(pyrazolo[1,5-b]pyridazin-3-yl)-1H-pyrrolo[2,3-b]pyridin-2-yl)methyl)ethane-1,2-diamine]",1000 to 30000
15,"CN1CCN(Cc2cc3c(-c4cnn5ncccc45)ccnc3[nH]2)CC1 [Example 16, 3-(2-((4-Methylpiperazin-1-yl)methyl)-1H-pyrrolo[2,3-b]pyridin-4-yl)pyrazolo[1,5-b]pyridazine]",100 to 1000
16,"COc1cnn2ncc(-c3ccnc4[nH]ccc34)c2c1 [Example 23, 5-Methoxy-3-(1H-pyrrolo[2,3-b]pyridin-4-yl)pyrazolo[1,5-b]pyridazine]",1000 to 30000

# Continued, values first:
row,IC50 [nM],SMILES
1,< 100,"C=CC(=O)N1CCC[C@@H]1C(=O)N1CCC(c2cc3c(-c4cnn5ncccc45)ccnc3[nH]2)C1 (stereo partly drawn) [Example 154, 1-((2R)-2-(3-(4-(Pyrazolo[1,5-b]pyridazin-3-yl)-1H-pyrrolo[2,3-b]pyridin-2-yl)pyrrolidine-1-carbonyl)pyrrolidin-1-yl)prop-2-en-1-one]"
2,< 100,"O=C([C@@H]1CCCN1C(=O)CCl)N1CCC(c2cc3c(-c4cnn5ncccc45)ccnc3[nH]2)C1 (stereo partly drawn) [Example 155, 2-Chloro-1-((2S)-2-(3-(4-(pyrazolo[1,5-b]pyridazin-3-yl)-1H-pyrrolo[2,3-b]pyridin-2-yl)pyrrolidine-1-carbonyl)pyrrolidin-1-yl)ethan-1-one]"
3,100 to 1000,"c1cnn2ncc(-c3ccnc4[nH]c([C@H]5CCNC5)cc34)c2c1 (single isomer, unassigned) [Example 125, 3-(2-(Pyrrolidin-3-yl)-1H-pyrrolo[2,3-b]pyridin-4-yl)pyrazolo[1,5-b]pyridazine]"
4,1000 to 30000,"C=CC(=O)NCC1CCN(Cc2cc3c(-c4cnn5ncccc45)ccnc3[nH]2)C1 (centres unmarked) [Example 199, N-((1-((4-(Pyrazolo[1,5-b]pyridazin-3-yl)-1H-pyrrolo[2,3-b]pyridin-2-yl)methyl)pyrrolidin-3-yl)methyl)acrylamide]"
5,1000 to 30000,"CN(C)CCOCc1cc2c(-c3cnn4ncccc34)ccnc2[nH]1 [Example 168, N,N-Dimethyl-2-((4-(pyrazolo[1,5-b]pyridazin-3-yl)-1H-pyrrolo[2,3-b]pyridin-2-yl)methoxy)ethan-1-amine Formate]"
6,< 100,"C=CC(=O)N1CCC(C(=O)N2CCC(c3cc4c(-c5cnn6ncccc56)ccnc4[nH]3)C2)CC1 (centres unmarked) [Example 143, 1-(4-(3-(4-(Pyrazolo[1,5-b]pyridazin-3-yl)-1H-pyrrolo[2,3-b]pyridin-2-yl)pyrrolidine-1-carbonyl)piperidin-1-yl)prop-2-en-1-one]"
7,1000 to 30000,"c1cncc(Cn2cc(-c3ccnc4[nH]ccc34)nn2)c1 [Example 136, 4-(1-(Pyridin-3-ylmethyl)-1H-1,2,3-triazol-4-yl)-1H-pyrrolo[2,3-b]pyridine]"
8,1000 to 30000,"C=CC(=O)N1CCC[C@H]1C(=O)NCCc1cc2c(-c3cccnc3)ccnc2[nH]1 [Example 105, (S)-1-Acryloyl-N-(2-(4-(pyridin-3-yl)-1H-pyrrolo[2,3-b]pyridin-2-yl)ethyl)pyrrolidine-2-carboxamide]"
9,1000 to 30000,"C=CC(=O)NCc1ccc(C(=O)NCc2cc3c(-c4cnn5ncccc45)ccnc3[nH]2)cc1 [Example 189, 4-(Acrylamidomethyl)-N-((4-(pyrazolo[1,5-b]pyridazin-3-yl)-1H-pyrrolo[2,3-b]pyridin-2-yl)methyl)benzamide]"
10,< 100,"C=CC(=O)N1CCC[C@H]1C(=O)N[C@H]1C[C@@H](c2cc3c(-c4cnn5ncccc45)ccnc3[nH]2)C1 [Example 205, (S)-1-Acryloyl-N-((1 S,3R)-3-(4-(pyrazolo[1,5-b]pyridazin-3-yl)-1H-pyrrolo[2,3-b]pyridin-2-yl)cyclobutyl)pyrrolidine-2-carboxamide]"
11,1000 to 30000,"CCC(=O)Nc1ccc(C(=O)NCc2cc3c(-c4cnn5ncccc45)ccnc3[nH]2)cc1 [Example 188, 4-Propionamido-N-((4-(pyrazolo[1,5-b]pyridazin-3-yl)-1H-pyrrolo[2,3-b]pyridin-2-yl)methyl)benzamide]"
12,1000 to 30000,"c1ccc(Cn2cc(-c3ccnc4[nH]ccc34)nn2)cc1 [Example 134, 4-(1-Benzyl-1H-1,2,3-triazol-4-yl)-1H-pyrrolo[2,3-b]pyridine]"
13,< 100,C=CC(=O)Nc1ccc(C(=O)N2CC[C@H](c3cc4c(-c5cnn6ncccc56)ccnc4[nH]3)C2)cc1 [Example 150]
14,1000 to 30000,"C=CC(=O)N1CC[C@@H](C(=O)NCc2cc3c(-c4cnn5ncccc45)ccnc3[nH]2)C1 [Example 179, (R)-1-Acryloyl-N-((4-(pyrazolo[1,5-b]pyridazin-3-yl)-1H-pyrrolo[2,3-b]pyridin-2-yl)methyl)pyrrolidine-3-carboxamide]"
15,< 100,"C=CC(=O)N1CCC[C@H](C(=O)N2CCC(c3cc4c(-c5cnn6ncccc56)ccnc4[nH]3)C2)C1 (stereo partly drawn) [Example 206, 1-((3S)-3-(3-(4-(Pyrazolo[1,5-b]pyridazin-3-yl)-1H-pyrrolo[2,3-b]pyridin-2-yl)pyrrolidine-1-carbonyl)piperidin-1-yl)prop-2-en-1-one]"
16,< 100,"C=CC(=O)N1CCC[C@@H]1C(=O)N1CCC(c2cc3c(-c4cnn5ncccc45)ccnc3[nH]2)CC1 [Example 195, (R)-1-(2-(4-(4-(pPyrazolo[1,5-b]pyridazin-3-yl)-1H-pyrrolo[2,3-b]pyridin-2-yl)piperidine-1-carbonyl)pyrrolidin-1-yl)prop-2-en-1-one]"
17,< 100,"C=CC(=O)N1CCN(C(=O)/C=C/c2cc3c(-c4cnn5ncccc45)ccnc3[nH]2)CC1 [Example 209, (E)-1-(4-Acryloylpiperazin-1-yl)-3-(4-(pyrazolo[1,5-b]pyridazin-3-yl)-1H-pyrrolo[2,3-b]pyridin-2-yl)prop-2-en-1-one]"
18,1000 to 30000,"O=S(=O)(NCc1cc2c(-c3cnn4ncccc34)ccnc2[nH]1)C1CC1 [Example 118, N-((4-(Pyrazolo[1,5-b]pyridazin-3-yl)-1H-pyrrolo[2,3-b]pyridin-2-yl)methyl)cyclopropanesulfonamide]"
19,< 100,"C=CC(=O)N1CCC[C@H]1C(=O)N1CC[C@H](c2cc3c(-c4cnn5ncccc45)ccnc3[nH]2)C1 [Example 162, 1-((S)-2-((S)-3-(4-(Pyrazolo[1,5-b]pyridazin-3-yl)-1H-pyrrolo[2,3-b]pyridin-2-yl)pyrrolidine-1-carbonyl)pyrrolidin-1-yl)prop-2-en-1-one]"
